# Conditions: buffer; pH 7.4; 200.0 µM
row,Compound,solubility kinetic [µg/mL]
1,Cc1noc(C)c1COC(=O)c1csc2c1CCCC2,8.3
2,Cc1cccc(C(=O)NCC(=O)OCC(=O)c2ccc(C)s2)c1,> 49.7
3,CC(C)OC(=O)Cn1cc(C#N)c2ccccc21,> 36.3
4,CS/C(=C\C(=O)c1ccco1)Nc1ccccc1Cl,10.4
5,CN(C)Cc1cc(C(C)(C)C)cc(C(C)(C)C)c1O,0.8
6,COc1cc(C(=O)NC(=S)N(CCC#N)Cc2cccnc2)cc(OC)c1OC,59.3
7,O=C(O)c1ccccc1Nc1cccc(C(F)(F)F)c1,> 42.2
8,C=CCn1c(O)c(C(CC)=Nc2ccc3c(c2)CCC3)c(=O)[nH]c1=O,1.4
9,COc1ccc(NC(=O)O/N=C/c2ccccc2Cl)cc1,17.7
10,CC(CCc1ccccc1)NS(=O)(=O)c1ccccc1F (stereo not given),39
11,O=C(Cn1c(=O)oc2cccnc21)Nc1ccc(C(F)(F)F)cc1,8.9
12,COc1ccc(NC(=O)COC(=O)c2cccn2C)cc1S(=O)(=O)N1CCCCC1,32.6
13,Cc1noc(C)c1COc1ccc(C(=O)Nc2ccccn2)cc1,7.6
14,Cn1c(C2CCCCC2)nc2c1c(=O)[nH]c(=O)n2Cc1ccccc1,16.7
15,Cc1ccc(CNCc2cccnc2)s1.Cl,> 38.2
16,CCCN1CCC(N2CCCC(C(=O)O)C2)CC1.Cl (stereo not given),> 49.1
17,Cc1ccc(S(=O)(=O)N2CCN(C(C)CC(=O)O)CC2)cc1 (stereo not given),32.9
18,COc1ccc(S(=O)(=O)N2CCOCC2)cc1C(=O)N(C)Cc1ccco1,> 59.2
19,O=C(Cn1c(=S)[nH]c2ncccc2c1=O)NCCc1ccccc1,2.1
20,Cc1ccccc1C(=O)Nc1ccnc(-c2ccncc2)n1,0.5
21,O=S(=O)(NC1C2CC3CC(C2)CC1C3)c1ccccc1 (stereo not given),23.4
22,CNC(=S)Nc1ccc2[nH]c(=O)[nH]c2c1,> 33.3
23,Cc1c(C(=O)NC(=S)Nc2cccnc2)cccc1[N+](=O)[O-],0.9
24,CC(=O)c1ccc(NC(=O)C2CC(=O)N(C(C)C)C2)cc1 (stereo not given),> 43.3

row,Compound,solubility kinetic [µg/mL]
1,Cc1ccc2cccc(OC(=O)/C=C\c3ccccc3)c2n1,16.8
2,CCN1CCN(Cc2c3ccccc3cc3ccccc23)CC1,27.9
3,Cc1nc2ccc(C(=O)N3CCN(Cc4ccccc4)CC3)cc2[nH]1,49.7
4,Cl.O=S(=O)(CCC1CCCCN1)c1ccccc1 (stereo not given),> 43.5
5,O=S(=O)(Nc1ccc(OC(F)(F)F)cc1)c1cccc2nonc12,46.1
6,COc1ccc(OC)c(/C=C2\NC(=O)NC2=O)c1,9.5
7,CC(C1CC1)N(C(=O)c1ccccc1[N+](=O)[O-])c1ccccc1 (stereo not given),13
8,Cc1ccc(OC(C)C(=O)OCC(=O)Nc2sccc2C(N)=O)cc1 (stereo not given),> 54.4
9,COc1ccc(C(=O)/C=C2/C(=O)Nc3ccccc32)c(OC)c1,12.7
10,COc1ccc(NC(=O)C2CCCN(S(C)(=O)=O)C2)cc1 (stereo not given),34.9
11,Cc1cc(C)c2nc(Cl)c(Cl)nc2c1,2.7
12,CN(C)c1cc[n+](CC(=O)Nc2ccccc2C(F)(F)F)cc1.[Cl-],> 54
13,COc1ccnc2c1c(=O)n(Cc1cccc(Cl)c1)c(=O)n2C,9.8
14,O=C(CC(=O)Nc1cccnc1)Nc1cccnc1,> 38.4
15,CCc1sc(C(=O)N2CCN(C(=O)c3ccccc3)CC2)cc1C,> 51.4
16,Cc1ccc(S(=O)(=O)N2CCC(C)CC2)cc1,28.6
17,CN(C)C(=O)c1cc(C(=O)c2c(F)cccc2F)c[nH]1,> 41.7
18,CCC(Cc1ccccc1)NC(=O)C1CCCCC1 (stereo not given),11.6
19,COc1ccc(Cl)cc1NC(=O)CN(C)C(=O)C1COc2ccccc2O1 (stereo not given),43.1
20,O=C(Cc1cccs1)N1CCN=C1SCc1ccccc1Cl,6.6
21,COc1ccc(NC(=O)CN2CCc3ccccc3C2)c(OC)c1,34.1
22,O=c1c2cccnc2nc2n1CCCCC2,> 32.3
23,CN(C(=O)c1cccc(NC(=O)Cc2ccccc2)c1)c1ccccc1,> 51.7
24,COc1ccc(C(=O)N2CCN(Cc3nc(CC4CC4)no3)CC2)cc1,> 53.5

row,Compound,solubility kinetic [µg/mL]
1,COc1cc(C)c(S(=O)(=O)N2CCOCC2)c(C)c1C,> 44.9
2,CNS(=O)(=O)c1cccc(C(=O)OC2CCOC2=O)c1 (stereo not given),> 44.9
3,CCN(Cc1cc(=O)[nH]c2ccccc12)C(=O)C(C)C,> 40.9
4,COc1cc(OC)cc(C(=O)Nc2ccc(Nc3ccccc3)cc2)c1,2.5
5,CN(C)c1cccc(NC(=O)c2cccc3ccccc23)c1,6.1
6,COc1ccc(C(=O)c2oc3ccc(OC)cc3c2NC(C)=O)cc1,< 0.7
7,C=CCNC(=O)C1CC1(c1ccc(C)cc1)c1ccc(C)cc1 (stereo not given),30.6
8,COc1ccc(Nc2ncc(F)c(N3CCOCC3)n2)cc1,3.8
9,O=C(CN1C(=O)c2ccccc2C1=O)Nc1cccc(O)c1,37
10,Cc1ccc(C(=O)N2CCCCC2C(=O)O)cc1S(=O)(=O)N1CCCCC1 (stereo not given),> 59.2
11,COCCN(CCOC)S(=O)(=O)c1ccc(Cl)nc1,45.3
12,Cn1c(=O)c2sccc2n(Cc2cccc(Br)c2)c1=O,1.4
13,CN(C)C(CNC(=O)c1ccc([N+](=O)[O-])cc1Cl)c1ccco1 (stereo not given),> 50.7
14,CN(C(=S)Nc1cccnc1)c1ccc(O)cc1,29
15,CCN1CCN(C(=O)c2[nH]c3ccc(OC)cc3c2C)CC1,> 45.2
16,CC(C)CCNC(=O)Cc1csc(-c2ccccc2)n1,41.4
17,CC(C)c1ccc(C(O)Cc2nc3ccccc3n2C)cc1 (stereo not given),1.8
18,CC1CCc2cc(F)ccc2N1S(=O)(=O)c1ccc(F)cc1 (stereo not given),2.4
19,CCN(CC)c1ccc(/C=C2\SC(N)=NC2=O)cc1,< 0.2
20,CCOC(=O)Cn1c(=NC(=O)C(C)C)sc2c(C)cc(C)cc21,< 0.4
21,COc1ccc(N=C2CCS(=O)(=O)c3sccc32)cc1,> 46.1
22,CCCCn1c(=O)c(C(=O)Nc2ccc(C)cn2)c(O)c2ccccc21,< 0.3
23,Fc1ccc(NC2=NCCCCC2)cc1,> 30.9
24,O=C(Nc1ccc(F)cc1)c1ccc(CSc2ccc(Cl)cc2)o1,4.3

row,Compound,solubility kinetic [µg/mL]
1,Cc1cc(C(=O)Nc2ccc(OCc3ccccc3)cc2)c(C)o1,< 0.7
2,Cc1cccc(N=C2NC(=O)/C(=C/c3cccnc3)S2)c1C,5.1
3,COc1ccccc1C1(O)C(=O)Nc2ccccc21 (stereo not given),> 38.3
4,CCC(C)(NC(=O)c1ccccn1)C(=O)NC1CCCC1 (stereo not given),> 43.4
5,Cc1cc(C(=O)OCC(=O)NCCN2C(=O)CSC2=O)ccc1[N+](=O)[O-],> 57.2
6,Cc1ccc(NC(=O)CCl)c(C)c1,> 29.7
7,Cc1ccc(NC(=O)CN2CCCC2c2cccn2C)c(Br)c1 (stereo not given),11.4
8,COc1ccc(CC(=O)N2CCc3ccccc3C2)cc1,39.6
9,CC(=O)N1CCN(c2ccccc2NC(=O)c2ccco2)CC1,> 47
10,O=C1CCc2ccccc2N1Cc1ccccc1,32.5
11,CC(N)Cc1cn(Cc2ccccc2)c2ccccc12.Cl (stereo not given),> 45.1
12,Br.C=CCn1c(=N)n(CC(=O)c2ccccc2)c2ccccc21,> 55.8
13,Cc1ccccc1CNCCCSc1ncccn1.Cl,35.2
14,O=C(NCc1ccccc1Cl)c1cc(=O)[nH]c2ccccc12,7.4
15,CC(C)(C)NC(=O)Cn1c(Cl)nc2ccccc21,> 39.9
16,Cn1ccnc1SCC(=O)Nc1cccc([N+](=O)[O-])c1,42.4
17,O=C(c1ccc(Oc2ccc([N+](=O)[O-])cc2)cc1)N1CCCCCC1,34.4
18,O=C(NC1CCN(c2ncccn2)CC1)c1ccccc1Cl,> 47.5
19,N#Cc1ccc(OCC(=O)OCC(=O)c2ccc[nH]2)cc1,> 42.6
20,COc1ccc(C(=O)O)cc1S(=O)(=O)NCc1ccccn1,> 48.4
21,Cc1ccc(C(=O)O)cc1NS(=O)(=O)c1ccc2c(c1)oc(=O)n2C,44.8
22,O=C(Nc1ccc(-c2ccccc2)cc1)c1ccccc1,1
23,NC(=O)CCN1CCCCC1,> 23.4
24,COc1ccccc1Nc1nc2cc(C)ccc2cc1C#N,< 0.2

row,Compound,solubility kinetic [µg/mL]
1,COc1ccc(C(=O)NCCc2c[nH]c3ccccc23)cc1[N+](=O)[O-],10.8
2,CCS(=O)(=O)N1CCC(C(=O)Oc2ccc(C)c(C)c2)CC1,38.5
3,Fc1ccccc1C1CCN(Cc2nc(COc3ccccc3)no2)C1 (stereo not given),12.7
4,CC(C)CC(Nc1ncnc2scc(-c3ccccc3)c12)C(=O)O (stereo not given),> 51.2
5,Cc1cc(C)c(C)c(S(=O)(=O)NC(C(=O)O)C(C)C)c1C (stereo not given),> 47
6,O=[N+]([O-])c1c(NCCCO)cc(Sc2ccc(Cl)cc2)c2nonc12,18.7
7,CCn1c(=S)[nH]c2cc(Cl)ccc21,> 31.9
8,COc1ccc(OC)c(C(O)C2CCCCN2)c1.Cl (stereo not given),> 43.2
9,O=C(Nc1cccc(S(=O)(=O)N2CCCCC2)c1)C1CCCC1,41.2
10,COc1ccc(N2C(=O)C3CCCN3C2=S)cc1 (stereo not given),> 39.3
11,COc1cnc(-c2ccccn2)nc1Oc1cccc(C(F)(F)F)c1,37.4
12,COc1ccc(/C(N)=N/OC(=O)CCC2CCCC2)cc1OC,8
13,O=C(O)CSc1nc2sc3c(c2c(=O)n1-c1ccccc1)CCC3,> 53.8
14,Nc1c(C(=O)N2CCCCC2)sc2nc3c(cc12)CCCC3,41.7
15,COc1ccc(NC(=O)CN2C(=O)CSC2=O)cc1,> 42
16,COc1ccc(NCC(=O)Nc2cccc(C(F)(F)F)c2)cc1S(=O)(=O)N1CCOCC1,3.4
17,CCCCCn1cc(C(=O)C(=O)N2CCOCC2)c2ccccc21,46.8
18,CCn1cc(C(=O)NCc2ccco2)c(=O)c2ccc(C)nc21,2.4
19,C=C(C)[C@@H]1CC=C(CN2CCC(CCOC)(C(=O)OCC)CC2)CC1,38.7
20,CN(C)C(CNC(=O)c1ccc(C(F)(F)F)cc1)c1ccco1 (stereo not given),> 48.9
21,Cc1cc(S(=O)(=O)Nc2cccnc2)c(Cl)cc1Cl,4.5
22,CCOc1cc(C(=S)N2CCCC2)ccc1O,> 37.7
23,c1ccc(N2CCOCCOCCOCCOCC2)cc1,> 44.3
24,O=c1c2sccc2[nH]c(=S)n1-c1ccccc1,38.5
